From US6509369B2, “Anti-inflammatory compounds” (Ortho-McNeil Pharmaceutical, Inc., priority 1997, dated 2003) come the findings set out here.

Data set [1] has as its target T1, human glucocorticoid receptor (hGR) (Homo sapiens, UniProt P04150).
T1 construct: made in house; host or cells: Sf21 insect cells infected with baculovirus hGR, OR IM9 lymphoblast cell line (endogenous hGR)
T1 sequence (P04150 1-777): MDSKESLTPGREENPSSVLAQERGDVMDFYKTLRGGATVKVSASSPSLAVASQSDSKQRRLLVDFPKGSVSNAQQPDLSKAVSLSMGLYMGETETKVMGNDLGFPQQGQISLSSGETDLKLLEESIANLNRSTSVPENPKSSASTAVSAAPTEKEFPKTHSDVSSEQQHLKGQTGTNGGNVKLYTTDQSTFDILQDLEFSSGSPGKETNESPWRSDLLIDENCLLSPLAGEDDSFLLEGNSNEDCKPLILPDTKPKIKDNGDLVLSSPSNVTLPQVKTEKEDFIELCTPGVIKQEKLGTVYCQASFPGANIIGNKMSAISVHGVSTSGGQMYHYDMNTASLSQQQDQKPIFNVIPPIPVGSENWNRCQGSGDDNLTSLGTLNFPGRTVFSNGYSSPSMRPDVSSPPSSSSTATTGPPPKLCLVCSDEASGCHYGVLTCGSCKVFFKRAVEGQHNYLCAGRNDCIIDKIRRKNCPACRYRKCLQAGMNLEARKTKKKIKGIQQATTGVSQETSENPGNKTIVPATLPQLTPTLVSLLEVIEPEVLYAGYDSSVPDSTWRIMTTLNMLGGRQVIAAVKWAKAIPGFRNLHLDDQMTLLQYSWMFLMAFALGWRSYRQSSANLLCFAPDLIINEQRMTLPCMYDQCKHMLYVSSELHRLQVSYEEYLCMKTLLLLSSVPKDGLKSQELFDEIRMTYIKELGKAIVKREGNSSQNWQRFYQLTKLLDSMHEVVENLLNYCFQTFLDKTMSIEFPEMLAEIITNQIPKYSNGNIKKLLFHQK
The data set can be described thus: human glucocorticoid receptor binding assay (displacement of 3(H) Triamcinolone acetonide). The settings on record: for hGR, value given as %: concentration not given. As for the experimental part:
A human glucocorticoid receptor binding assay was carried out to determine the extent to which the compounds of this invention have the ability to bind to human glucocorticoid receptors. This binding ability may be indicative of the antiinflammatory activity of the compound. The test was carried out as follows.
Human glucocorticoid receptors were prepared from either insect cells (Sf21) infected with baculovirus hGR or from a lymphoblast cell line which expresses high levels of endogenous hGR (IM9). The receptor binding reactions, with or without test compounds, were set up in 96-well microtiter plates which were previously siliconized with SIGMACOTE™, a chlorinated organopolysiloxane in heptane. The binding components, 3(H) Triamcinolone acetonide (TAA), glycerol/molybdate-containing buffer and unlabeled compounds were added to the wells using a combination of BIOMEK laboratory automation system and repeat pipettes. After four hours of incubation, the samples were precipitated with polyethylene glycol and filtered through Whatman GF/F paper using a TOMTEK cell harvester. The filter mate with 96 samples were bound to a solid-phase scintillant and directly counted in a BETAPLATE counter. […] The activity of test compounds to displace 3(H) TAA binding to hGR is also expressed as percent inhibition at 1 μM.

The subject of data set [2] is human progesterone receptor (hPR). The data set can be described thus: human progesterone receptor binding assay (displacement of 3(H) R5020 Promegestone). On the procedure:
A human progesterone receptor binding assay was performed in order to determine selectivity of the compounds, as follows. Human progesterone receptors were prepared from either insect cells (SF21) infected with baculovirus hPR A, or from a breast cancer cell line, T47D, which expresses high levels of endogenous hPR. The receptor binding reactions, with or without test compounds, were set up in 96-well microtiter plates which were previously siliconized with SIGMACOTE. The binding components, 3(H) R5020 Promegestone, a high affinity ligand for the progesterone receptors, glycerol/molybdate-containing buffer and unlabeled compounds were added to the wells using a combination of BIOMEK laboratory automation system and repeat pipettes. After overnight incubation, the samples were precipitated with polyethylene glycol and filtered through Whatman GF/F paper using a TOMTEK cell harvester. The filter mate with 96 samples were bound to a solid-phase scintillant and directly counted in the BETAPLATE counter. Only those compounds that were active in the human glucocorticoid receptor assay set forth in Example 30 were used for progesterone receptor binding to determine cross-reactivity profiles, if any. The activity of test compounds to displace 3(H) R5020 binding to hPR is expressed as percent inhibition at the two concentrations, 10^−6 and 10^−5 Molar.

Data set [3] concerns oxazolone-induced ear swelling (MOCH) in albino male CD-1 mice. The data set can be described thus: mouse oxazolone-induced contact hypersensitization (MOCH) ear swelling. The settings on record: for inhibition in vivo at 1 mg / Oxazolone Ear Swelling (MOCH) % inhibition vs. Vehicle at 1 mg: topical to mouse ear, one hour after oxazolone challenge, ear biopsy weight at 24 hours; for inhibition in vivo at 1 mg: read-out: Oxazolone Ear Swelling (MOCH) % inhibition vs. Vehicle at 1 mg. In kind it is in vivo. Put shortly: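 Male CD-1 mice aged 7–9 weeks were sensitised on the abdomen with 3% oxazolone on Day 0 and challenged on Day 5 with 2% oxazolone on the left ear. Compounds in ethanol/propylene glycol 70:30 were applied topically to that ear 1 h after challenge. At 24 h, the weight difference between 7 mm left and right ear biopsies gave the measure of inhibition.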

The term melting point denotes the temperature, or range, at which the solid turns liquid. By IC50 is commonly meant the concentration at which inhibition is half-maximal. With `O=C(Cc1ccccc1)NCC(c1ccccc1)C(c1ccccc1)c1ccccc1` (stereo not drawn) [Compound 1], the melting point fell in the range of 146 to 147 °C. Besides, in data set [1], the half-inhibitory concentration (IC50) was found to be 890 nM. Further, the “hPR % inh 10 μM” value in data set [2] was −0.2%.

As for `O=C(Cc1ccccc1)NCC(c1ccccc1)C(c1ccc(F)cc1)c1ccc(F)cc1` (stereo not drawn) [Compound 15], the melting point was in the range of 87.5 to 89.7 °C. Also, in data set [1], the IC50 is 21 nM. In addition, in data set [3], the inhibition in vivo at 1 mg is 47%. In addition, the “topical antiinflammatory activity in the oxazolone model (in words)” value in data set [3] (topical, mouse ear) is listed as “moderate topical activity”.

On to `COc1ccccc1CCC(=O)NCC(c1ccc(Cl)cc1)C(c1ccccc1)c1ccccc1` (stereo not drawn) [Compound 21], for which the melting point lay in the range of 122.2 to 123.5 °C. In addition, the IC50 in data set [1] came out at 57 nM. The “hPR % inh 10 μM” value in data set [2] worked out at 21%.

For the molecule `O=C(Cc1ccsc1)NCC(c1ccccc1)C(c1ccccc1)c1ccccc1` (stereo not drawn) [Compound 36], in data set [1], the IC50 was found to be 25 nM. Further, the “hPR % inh 10 μM” value in data set [2] was determined as 22%.

With `O=C(CCCc1cccs1)NCC(c1ccccc1)C(c1ccccc1)c1ccccc1` (stereo not drawn) [Compound 37], the IC50 in data set [1] amounted to 500 nM. The “hPR % inh 10 μM” value in data set [2] came to 4%.

On to `O=S(=O)(NCC(c1ccccc1)C(c1ccccc1)c1ccccc1)c1cccs1` (stereo not drawn) [Compound 40], for which the IC50 in data set [1] came out at 151 nM. Besides, the “hPR % inh 10 μM” value in data set [2] was 22%.

`O=C(NCC(c1ccccc1)C(c1ccccc1)c1ccccc1)c1ccsc1` (stereo not drawn) [Compound 42]: the IC50 in data set [1] was found to be 68 nM. Also, the “hPR % inh 10 μM” value in data set [2] is given as 18%.

On to `O=C(NCC(c1ccccc1)C(c1ccccc1)c1ccccc1)c1cccs1` (stereo not drawn) [Compound 45], for which the 50% inhibitory concentration (IC50) in data set [1] stood at 31 nM. Moreover, the “hPR % inh 10 μM” value in data set [2] was found to be 5%.

Take `O=C(Cc1cccs1)NCC(c1cccs1)C(c1ccccc1)c1ccccc1` (stereo not drawn) [Compound 46]: the melting point fell in the range of 138.2 to 139.9 °C. Besides, in data set [1], the IC50 was 723 nM. Also, the inhibition in vivo at 1 mg in data set [3] came out at 4%.

As to `O=C(Cc1c[nH]c2ccccc12)NCC(c1ccccc1)C(c1ccccc1)c1ccccc1` (stereo not drawn) [Compound 47], in data set [1], the IC50 was 416 nM. Also, in data set [2], the “hPR % inh 10 μM” value came out at 17%.

Take `O=C(CCc1c[nH]c2ccccc12)NCC(c1ccccc1)C(c1ccccc1)c1ccccc1` (stereo not drawn) [Compound 48]: the IC50 in data set [1] is 605 nM. The “hPR % inh 10 μM” value in data set [2] is recorded as 19%.

As for `O=C(Cc1ccccn1)NCC(c1ccccc1)C(c1ccccc1)c1ccccc1` (stereo not drawn) [Compound 49], in data set [1], the IC50 came out at 200 nM. Further, the “hPR % inh 10 μM” value in data set [2] was determined as 11%.

`O=C(Cc1ccccc1)NCC(c1ccccc1)C1c2ccccc2-c2ccccc21` (stereo not drawn) [Compound 66]: the IC50 in data set [1] is 888 nM. The “hPR % inh 10 μM” value in data set [2] was determined as 18%.

On to `O=C(Cc1cccs1)NCC(c1ccccc1)C1c2ccccc2-c2ccccc21` (stereo not drawn) [Compound 71], for which the IC50 in data set [1] was 820 nM. The “hPR % inh 10 μM” value in data set [2] was 16%.

`O=C(Cc1ccccc1)NCC1(c2ccccc2)CC1(c1ccccc1)c1ccccc1` (stereo not drawn) [Compound 78]: the 50% inhibitory concentration (IC50) in data set [1] was found to be 1200 nM. For the same molecule, the “hPR % inh 10 μM” value in data set [2] stood at 6%.

In the case of `COc1ccc(CC(=O)NCC2(c3ccccc3)CC2(c2ccccc2)c2ccccc2)cc1OC` (stereo not drawn) [Compound 79], in data set [1], the IC50 is 1000 nM. The “hPR % inh 10 μM” value in data set [2] came to 24.5%.

Consider `O=C(Cc1ccccc1Cl)NCC1(c2ccccc2)CC1(c1ccccc1)c1ccccc1` (stereo not drawn) [Compound 80, N-(2chlorophenyl)acetyl-1,2,2-triphenylcyclopropylmethylamine], for which the IC50 in data set [1] was found to be 955 nM. For the same molecule, the “hPR % inh 10 μM” value in data set [2] is −11%.

In the case of `O=C(NCC1(c2ccccc2)CC1(c1ccccc1)c1ccccc1)C(c1ccccc1)c1ccccc1` (stereo not drawn) [Compound 82], the IC50 in data set [1] amounted to 510 nM. Besides, the “hPR % inh 10 μM” value in data set [2] is listed as −20.4%.

With `CCCC(=O)NCC1(c2ccccc2)CC1(c1ccccc1)c1ccccc1` (stereo not drawn) [Compound 83], in data set [1], the IC50 turned out to be 573 nM. Besides, the “hPR % inh 10 μM” value in data set [2] turned out to be 45%.

Consider `CC(C)C(=O)NCC1(c2ccccc2)CC1(c1ccccc1)c1ccccc1` (stereo not drawn) [Compound 84], for which the IC50 in data set [1] worked out at 612 nM. For the same molecule, the “hPR % inh 10 μM” value in data set [2] is 15.3%.

Turning to `CC(C)CC(=O)NCC1(c2ccccc2)CC1(c1ccccc1)c1ccccc1` (stereo not drawn) [Compound 85], the “hGR, value given as %” value in data set [1] turned out to be 68%. In data set [2], the “hPR % inh 10 μM” value stood at 7.2s %. Further, the “Oxazolone Ear Swelling (MOCH) % inhibition vs. Vehicle at 1 mg” value in data set [3] is on record as 16%.

`CC(C)(C)C(=O)NCC1(c2ccccc2)CC1(c1ccccc1)c1ccccc1` (stereo not drawn) [Compound 86]: the IC50 in data set [1] worked out at 665 nM. In addition, the “hPR % inh 10 μM” value in data set [2] is recorded as 12.6%.

As to `CCCCC(=O)NCC1(c2ccccc2)CC1(c1ccccc1)c1ccccc1` (stereo not drawn) [Compound 87], the IC50 in data set [1] was determined as 681 nM. Also, the “hPR % inh 10 μM” value in data set [2] worked out at 19.8%.

`O=C(Cc1ccsc1)NCC1(c2ccccc2)CC1(c1ccccc1)c1ccccc1` (stereo not drawn) [Compound 89]: the IC50 in data set [1] was found to be 570 nM. In addition, the “hPR % inh 10 μM” value in data set [2] was determined as 22%.

`O=C(NCC1(c2ccccc2)CC1(c1ccccc1)c1ccccc1)Nc1ccccc1` (stereo not drawn) [Compound 92]: the IC50 in data set [1] came to 1490 nM. Also, the “hPR % inh 10 μM” value in data set [2] was −1%.

`O=C(NCC1(c2ccccc2)CC1(c1ccccc1)c1ccccc1)Nc1ccccc1F` (stereo not drawn) [Compound 93]: the “hGR, value given as %” value in data set [1] is 17%. The “hPR % inh 10 μM” value in data set [2] stood at 33.9%. Besides, the “Oxazolone Ear Swelling (MOCH) % inhibition vs. Vehicle at 1 mg” value in data set [3] is 26%.

As for `COc1ccccc1NC(=O)NCC1(c2ccccc2)CC1(c1ccccc1)c1ccccc1` (stereo not drawn) [Compound 94], the “hGR, value given as %” value in data set [1] came to 13%. Besides, in data set [2], the “hPR % inh 10 μM” value is recorded as −18.6%. Moreover, in data set [3], the “Oxazolone Ear Swelling (MOCH) % inhibition vs. Vehicle at 1 mg” value came out at 35%.

With `O=C(NCc1ccccc1)NCC1(c2ccccc2)CC1(c1ccccc1)c1ccccc1` (stereo not drawn) [Compound 95], in data set [1], the “hGR, value given as %” value was found to be 4%. Moreover, the “hPR % inh 10 μM” value in data set [2] is on record as −14.3%. In addition, in data set [3], the “Oxazolone Ear Swelling (MOCH) % inhibition vs. Vehicle at 1 mg” value is 16%.

Regarding `O=C(NCC1(c2ccccc2)CC1(c1ccccc1)c1ccccc1)Oc1ccccc1` (stereo not drawn) [Compound 96], the IC50 in data set [1] was found to be 927 nM. Moreover, in data set [2], the “hPR % inh 10 μM” value is recorded as 9.9%.

For the molecule `O=C(NCC1(c2ccccc2)CC1(c1ccccc1)c1ccccc1)Oc1ccc(Cl)cc1` (stereo not drawn) [Compound 97], the concentration for half-maximal inhibition (IC50) in data set [1] turned out to be 157 nM. In addition, the “hPR % inh 10 μM” value in data set [2] came to 12.5%.
